These are literature values, as cited in patent US20040186084A1, “Triamcinolone formulations and methods for their preparation and use” (Akorn, Inc., priority 2003, published 2004).

As to `CC1(C)O[C@@H]2C[C@H]3[C@@H]4CCC5=CC(=O)C=C[C@]5(C)[C@@]4(F)[C@@H](O)C[C@]3(C)[C@]2(C(=O)CO)O1` [triamcinolone acetonide, (11β,16α)-9-fluoro-11,21-dihydroxy-16,17-[1-methylethylidenebis(oxy)]pregna-1,-4-diene-3,20-dione], the “solubility in organic solvents” value (methanol, acetone and ethyle acetate) is reported as “sparingly soluble”. The solubility in water entry (water) is given as “relatively insoluble”.
